Assay results from patent US8247211B2, “Glycopeptide antibiotics” (American Cyanamid Company, priority 2001, dated 2012).
In brackets after ≈: the same amount, converted by molar mass.

What was measured:
Experiment in all cases: In vitro antibacterial evaluation: minimum inhibitory concentration (MIC), broth dilution method
Format in all cases: cell-based
Enterococcus sp. = system: Enterococcus sp.
Description: (§1) The minimum inhibitory concentration (MIC), the lowest concentration of the antibiotic which inhibits growth of the test organism, is determined by the broth dilution method using Muller-Hinton II […] (Baltimore Biological Laboratories) following the recommendations of the National Committee for Clinical Laboratory Standards [Methods for dilution antimicrobial susceptibility tests for bacteria that grow aerobically, approved standard M7-A2, National Committee for Clinical Laboratory Standards, Villanova, Pa].
(§2) An inoculum level of 5×10^5 CFU/mL, and a range of antibiotic concentrations (64-0.06 μg/mL) is used. […] The test organisms include a spectrum of Gram-positive bacteria comprised of Staphylococcus sp., Streptococcus sp. and Enterococcus sp. These organisms include recent clinical isolates that are resistant to methicillin, penicillin and/or vancomycin.

Escherichia coli = system: Escherichia coli
Description: as §1, §2

Streptococcus sp. = system: Streptococcus sp.
Description: as §1, §2

Staphylococcus sp. = settings: for MIC Staphylococcus aureus-SMITH (GC 4543): strain GC 4543; for MIC Staphylococcus haemolyticus (GC 4546): strain GC 4546; for MIC Coagulase Negative Staphylococcus (GC 4547): strain GC 4547; for MIC Coagulase Negative Staphylococcus (GC 4548): strain GC 4548; for MIC Coagulase Negative Staphylococcus (GC 4549): strain GC 4549; for MIC Coagulase Negative Staphylococcus (GC 4551): strain GC 4551; for MIC Coagulase Negative Staphylococcus (ID-3941): strain ID-3941
Description: as §1, §2

[1] = broth dilution, 18 hours at 35° C.
[2] = broth dilution, 5×10^5 CFU/mL, 18 hours at 35° C.

CCCC(CCC)C(=O)OCC1OC(Oc2ccc(CC3NC(=O)C(C(C)c4ccccc4)NC(=O)CNC(=O)C(CO)NC(=O)C(C(O)C4CNC(=N)N4C4OC(CO)C(O)C(O)C4O)NC(=O)C(C(O)C4CNC(=N)N4)NC3=O)cc2)C(O)C(O)C1OC1OC(CO)C(O)C(O)C1O (stereo not drawn) [Example 99b, Cyclo[glycyl-β-methylphenylalanyl-O-(4-O-hexopyranosyl-6-O-(2-propylpentanoyl)hexopyranosyl]tyrosyl-3-(2-iminoimidazolidin-4-yl)seryl-3-(3-hexopyranosyl-2-iminoimidazolidin-4-yl)serylseryl]]
MIC Enterococcus faecalis (ATCC 29212) (Enterococcus sp.; strain ATCC 29212): 16 µg/mL (≈ 11.3 µM)
MIC Enterococcus faecalis (GC 2242) (Enterococcus sp.; strain GC 2242): 16 µg/mL (≈ 11.3 µM)
MIC Enterococcus faecium (GC 2243) (Enterococcus sp.; strain GC 2243): 16 µg/mL (≈ 11.3 µM)
MIC Enterococcus faecalis (GC 4552) (Enterococcus sp.; strain GC 4552): 32 µg/mL (≈ 22.5 µM)
MIC Enterococcus faecalis (GC 4553) (Enterococcus sp.; strain GC 4553): 16 µg/mL (≈ 11.3 µM)
MIC Enterococcus faecalis (GC 4554) (Enterococcus sp.; strain GC 4554): 32 µg/mL (≈ 22.5 µM)
MIC Enterococcus faecium (GC 4556) (Enterococcus sp.; strain GC 4556): 16 µg/mL (≈ 11.3 µM)
MIC Enterococcus faecium (GC 4557) (Enterococcus sp.; strain GC 4557): 4 µg/mL (≈ 2.81 µM)
MIC Enterococcus avium (GC 4558) (Enterococcus sp.; strain GC 4558): 16 µg/mL (≈ 11.3 µM)
MIC Escherichia coli (ATCC 25922) (Escherichia coli; strain ATCC 25922): >64 µg/mL
MIC Streptococcus agalactiae (GC 4564) (Streptococcus sp.; strain GC 4564): 2 µg/mL (≈ 1.41 µM)
MIC Streptococcus pneumoniae (GC 4565) (Streptococcus sp.; strain GC 4565): <0.5 µg/mL
MIC Streptococcus pyogenes (ID-3187) (Streptococcus sp.; strain ID-3187): 1 µg/mL (≈ 0.703 µM)
MIC Staphylococcus aureus (ATCC 29213) (Staphylococcus sp.; [1]): 4 µg/mL (≈ 2.81 µM)
MIC Staphylococcus aureus (GC 1131) (Staphylococcus sp.; [1]): 4 µg/mL (≈ 2.81 µM)
MIC Staphylococcus aureus (GC 4541) (Staphylococcus sp.; [1]): 4 µg/mL (≈ 2.81 µM)
MIC Staphylococcus aureus (GC 4542) (Staphylococcus sp.; [1]): 4 µg/mL (≈ 2.81 µM)
MIC Staphylococcus aureus (GC 4544) (Staphylococcus sp.; [1]): 4 µg/mL (≈ 2.81 µM)
MIC Staphylococcus aureus (GC 4545) (Staphylococcus sp.; [1]): 4 µg/mL (≈ 2.81 µM)
MIC Staphylococcus aureus-SMITH (GC 4543) (Staphylococcus sp.; 18 hours at 35° C.): 4 µg/mL (≈ 2.81 µM)
MIC Staphylococcus aureus-SMITH (GC 4543) (Staphylococcus sp.; [1]): 4 µg/mL (≈ 2.81 µM)
MIC Staphylococcus haemolyticus (GC 4546) (Staphylococcus sp.): 4 µg/mL (≈ 2.81 µM)
MIC Staphylococcus haemolyticus (GC 4546) (Staphylococcus sp.; [1]): 4 µg/mL (≈ 2.81 µM)
MIC Coagulase Negative Staphylococcus (GC 4547) (Staphylococcus sp.): 4 µg/mL (≈ 2.81 µM)
MIC Coagulase Negative Staphylococcus (GC 4547) (Staphylococcus sp.; [1]): 4 µg/mL (≈ 2.81 µM)
MIC Coagulase Negative Staphylococcus (GC 4548) (Staphylococcus sp.): 4 µg/mL (≈ 2.81 µM)
MIC Coagulase Negative Staphylococcus (GC 4548) (Staphylococcus sp.; [1]): 4 µg/mL (≈ 2.81 µM)
MIC Coagulase Negative Staphylococcus (GC 4549) (Staphylococcus sp.): 2 µg/mL (≈ 1.41 µM)
MIC Coagulase Negative Staphylococcus (GC 4549) (Staphylococcus sp.; [1]): 2 µg/mL (≈ 1.41 µM)
MIC Coagulase Negative Staphylococcus (GC 4551) (Staphylococcus sp.): 8 µg/mL (≈ 5.63 µM)
MIC Coagulase Negative Staphylococcus (GC 4551) (Staphylococcus sp.; [1]): 8 µg/mL (≈ 5.63 µM)
MIC Coagulase Negative Staphylococcus (ID-3941) (Staphylococcus sp.): 2 µg/mL (≈ 1.41 µM)
MIC Coagulase Negative Staphylococcus (ID-3941) (Staphylococcus sp.; [1]): 2 µg/mL (≈ 1.41 µM)

CC(c1ccccc1)C1NC(=O)CNC(=O)C(CO)NC(=O)C(C(O)C2CNC(=N)N2C2OC(CO)C(O)C(O)C2O)NC(=O)C(C(O)C2CNC(=N)N2)NC(=O)C(Cc2ccc(OC3OC(COC(=O)OCc4ccccc4)C(OC4OC(CO)C(O)C(O)C4O)C(O)C3O)cc2)NC1=O (stereo not drawn) [Example 101, Cyclo[glycyl-β-methylphenylalanyl-O-[4-O-hexopyranosyl-6-O-[(phenylmethoxy)carbonyl]-hexopyranosyl]tyrosyl-3-(2-iminoimidazolidin-4-yl)seryl-3-(3-hexopyranosyl-2-iminoimidazolidin-4-1/1)serylseryl]]
MIC Enterococccus avium (GC 4558) (Enterococcus sp.; [2]): 32 µg/mL (≈ 22.4 µM)
MIC Enterococccus faecalis (ATCC 29212) (Enterococcus sp.; [2]): 32 µg/mL (≈ 22.4 µM)
MIC Enterococccus faecalis (GC 4552) (Enterococcus sp.; [2]): 64 µg/mL (≈ 44.8 µM)
MIC Enterococccus faecalis (GC 4553) (Enterococcus sp.; [2]): 32 µg/mL (≈ 22.4 µM)
MIC Enterococccus faecalis (GC 4554) (Enterococcus sp.; [2]): 64 µg/mL (≈ 44.8 µM)
MIC Enterococccus faecium (GC 2243) (Enterococcus sp.; [2]): 32 µg/mL (≈ 22.4 µM)
MIC Enterococccus faecium (GC 4556) (Enterococcus sp.; [2]): 32 µg/mL (≈ 22.4 µM)
MIC Enterococccus faecium (GC 4557) (Enterococcus sp.; [2]): 2 µg/mL (≈ 1.4 µM)
MIC Enterococcus faecalis (GC 2242) (Enterococcus sp.; [2]): 16 µg/mL (≈ 11.2 µM)
MIC Escherichia coli (ATCC 25922) (Escherichia coli; 5×10^5 CFU/mL, 18 hours at 35° C.): >64 µg/mL
MIC Streptococcus agalactiae (GC 4564) (Streptococcus sp.; [2]): 2 µg/mL (≈ 1.4 µM)
MIC Streptococcus pneumoniae (GC 4565) (Streptococcus sp.; [2]): <0.5 µg/mL
MIC Streptococcus pyogenes (ID-3187) (Streptococcus sp.; [2]): 2 µg/mL (≈ 1.4 µM)
MIC Staphylococcus aureus (ATCC 29213) (Staphylococcus sp.; strain ATCC 29213): 4 µg/mL (≈ 2.8 µM)
MIC Staphylococcus aureus (GC 1131) (Staphylococcus sp.; strain GC 1131): 4 µg/mL (≈ 2.8 µM)
MIC Staphylococcus aureus (GC 4541) (Staphylococcus sp.; strain GC 4541): 4 µg/mL (≈ 2.8 µM)
MIC Staphylococcus aureus (GC 4542) (Staphylococcus sp.; strain GC 4542): 8 µg/mL (≈ 5.6 µM)
MIC Staphylococcus aureus-SMITH (GC 4543) (Staphylococcus sp.; 18 hours at 35° C.): 4 µg/mL (≈ 2.8 µM)
MIC Staphylococcus aureus-SMITH (GC 4543) (Staphylococcus sp.; [1]): 4 µg/mL (≈ 2.8 µM)
MIC Staphylococcus aureus (GC 4544) (Staphylococcus sp.; strain GC 4544): 8 µg/mL (≈ 5.6 µM)
MIC Staphylococcus aureus (GC 4545) (Staphylococcus sp.; strain GC 4545): 4 µg/mL (≈ 2.8 µM)
MIC Staphylococcus haemolyticus (GC 4546) (Staphylococcus sp.): 4 µg/mL (≈ 2.8 µM)
MIC Staphylococcus haemolyticus (GC 4546) (Staphylococcus sp.; [1]): 4 µg/mL (≈ 2.8 µM)
MIC Coagulase Negative Staphylococcus (GC 4547) (Staphylococcus sp.): 2 µg/mL (≈ 1.4 µM)
MIC Coagulase Negative Staphylococcus (GC 4547) (Staphylococcus sp.; [1]): 2 µg/mL (≈ 1.4 µM)
MIC Coagulase Negative Staphylococcus (GC 4548) (Staphylococcus sp.): 2 µg/mL (≈ 1.4 µM)
MIC Coagulase Negative Staphylococcus (GC 4548) (Staphylococcus sp.; [1]): 2 µg/mL (≈ 1.4 µM)
MIC Coagulase Negative Staphylococcus (GC 4549) (Staphylococcus sp.): 1 µg/mL (≈ 0.7 µM)
MIC Coagulase Negative Staphylococcus (GC 4549) (Staphylococcus sp.; [1]): 1 µg/mL (≈ 0.7 µM)
MIC Coagulase Negative Staphylococcus (GC 4551) (Staphylococcus sp.): 8 µg/mL (≈ 5.6 µM)
MIC Coagulase Negative Staphylococcus (GC 4551) (Staphylococcus sp.; [1]): 8 µg/mL (≈ 5.6 µM)
MIC Coagulase Negative Staphylococcus (ID-3941) (Staphylococcus sp.): 1 µg/mL (≈ 0.7 µM)
MIC Coagulase Negative Staphylococcus (ID-3941) (Staphylococcus sp.; [1]): 1 µg/mL (≈ 0.7 µM)
